Assay results taken from patent US9447136B2, “Semisynthetic derivatives of Nystatin A1” (BLIRT S.A., priority 2012, dated 2016).

Experiments:
Assay in all cases: Antifungal activity in vitro, serial dilution in RPMI 1640
Type in all cases: cell-based
[1] = test system: Candida lusitaniae DSM 70102; details: Table 2A; RPMI 1640, pH 7.0
Procedure: (§1) For the determination of antifungal activity in vitro we used method of serial dilution in buffered medium RPMI 1640, pH 7.0, in a 96-wells microplates, according to the standard procedure (National Committee for Clinical Laboratory Standards. Reference method for broth dilution antifungal susceptibility testing of yeast, approved standard, 2nd ed. M27-A2 vol. 22 Wayne, Pa., 2002). The optical density of cells suspension was measured using a microplates reader (Victor^3, Perkin-Elmer) at the wavelength λ=531 nm (A531). On the basis of obtained results the diagrams of relation between A531 values and concentration of examined compound were made. From these graphs, the IC50 values were read, which were the interpolated concentrations of a tested compound, at which the A531 value was exactly 50% of the A531 value for the control sample. Moreover, MIC values, that are the lowest concentration of tested compound at which the A531 value were at most 20% of the A531 value measured for the control sample.

[2] = test system: Candida glabrata DSM 11226; details: Table 2A; RPMI 1640, pH 7.0
Procedure: as §1

Candida krusei DSM 6128 = details: Table 2A; RPMI 1640, pH 7.0
Procedure: as §1

[3] = test system: Candida albicans ATCC 10231; details: Table 2A, RPMI 1640, pH 7.0; for Antifungal activity Candida albicans ATCC 10231 IC50: A531 50% of control; for Antifungal activity Candida albicans ATCC 10231 MIC: A531 at most 20% of control
Procedure: as §1

[4] = test system: Candida tropicalis KKP 334; details: Table 2A; RPMI 1640, pH 7.0
Procedure: as §1

[5] = test system: Saccharomyces cerevisiae ATCC 9763; details: Table 2A; RPMI 1640, pH 7.0; A531 at most 20% of control
Procedure: as §1

Compound | Antifungal activity Candida lusitaniae DSM 70102 MIC [1] [mg/L] | Antifungal activity Candida glabrata DSM 11226 MIC [2] [mg/L] | Antifungal activity Candida krusei DSM 6128 MIC (Candida krusei DSM 6128) [mg/L] | Antifungal activity Candida albicans ATCC 10231 IC50 [3] [mg/L] | Antifungal activity Candida albicans ATCC 10231 MIC [3] [mg/L] | Antifungal activity Candida tropicalis KKP 334 MIC [4] [mg/L] | Antifungal activity Saccharomyces cerevisiae ATCC 9763 MIC [5] [mg/L]
CC1OC(O[C@H]2/C=C/C=C/C=C/C=C/CC/C=C/C=C/[C@H](C)[C@@H](O)[C@@H](C)[C@H](C)OC(=O)C[C@H](O)C[C@H](O)C[C@H](O)CC[C@@H](O)[C@H](O)CC3(O)C[C@H](O)[C@@H](C(=O)O)[C@H](C2)O3)C(O)C(NC2CC(=O)N(CCN3CCN(C)CC3)C2=O)C1O (some centres unmarked) [Compound N9, N—[N′-2-(4-methylpiperazin-1-yl)ethylsuccinimidyl]nystatin A1] | 4 | 16 | 16 | 5.62 | 8 | 8 | 8
C[C@@H]1[C@H](O)[C@@H](C)/C=C/C=C/CC/C=C/C=C/C=C/C=C/[C@H](O[C@@H]2O[C@H](C)[C@@H](O)[C@H](NC3CC(=O)N(CCCN(C)C)C3=O)[C@@H]2O)C[C@@H]2O[C@](O)(C[C@@H](O)C[C@@H](O)[C@H](O)CC[C@@H](O)C[C@@H](O)CC(=O)O[C@H]1C)C[C@H](O)[C@H]2C(=O)O (some centres unmarked) [Compound N6, N—[N′-3-(N″,N″-dimethylamino)propylsuccinimidyl]nystatin A1] | 4 | 16 | 16 | 5.52 | 8 | 8 | 8
C[C@@H]1[C@H](O)[C@@H](C)/C=C/C=C/CC/C=C/C=C/C=C/C=C/[C@H](O[C@@H]2O[C@H](C)[C@@H](O)[C@H](NC(=S)NCCN(C)C)[C@@H]2O)C[C@@H]2O[C@](O)(C[C@@H](O)C[C@@H](O)[C@H](O)CC[C@@H](O)C[C@@H](O)CC(=O)O[C@H]1C)C[C@H](O)[C@H]2C(=O)O [Compound N18, N-{3-[2-(N,N-dimethylamino)ethyl]thioureidyl}nystatin A1] | 4 | 8 | 8 | 2.97 | 4 | 4 | 4
N-{3-[2-(morpholin-1-yl)ethyl]thioureidyl}nystatin A1 [Compound N13] | 8 | 16 | 16 | 3.88 | 8 | 8 | 8
N-{3-[2-(piperidin-1-yl)ethyl]thioureidyl}nystatin A1 [Compound N12] | 4 | 8 | 16 | 4.20 | 8 | 8 | 8
CCN(CC1(O)OCC(O)C(O)C1O)C1C(O)C(C)OC(OC2C=CC=CC=CC=CCCC=CC=CC(C)C(O)C(C)C(C)OC(=O)CC(O)CC(O)CC(O)CCC(O)C(O)CC3(O)CC(O)C(C(=O)O)C(C2)O3)C1O (centres unmarked) [Compound N29, N-fructosyl-N-ethylnystatin A1] | 8 | 16 | 16 | 3.56 | 8 | 8 | 8
C[C@@H]1[C@H](O)[C@@H](C)/C=C/C=C/CC/C=C/C=C/C=C/C=C/[C@H](O[C@@H]2O[C@H](C)[C@@H](O)[C@H](NC(=S)NCCN3CCCC3)[C@@H]2O)C[C@@H]2O[C@](O)(C[C@@H](O)C[C@@H](O)[C@H](O)CC[C@@H](O)C[C@@H](O)CC(=O)O[C@H]1C)C[C@H](O)[C@H]2C(=O)O [Compound N16, N-{3-[2-(pyrrolidin-1-yl)ethyl]thioureidyl}nystatin A1] | 4 | 8 | 8 | 3.04 | 4 | 4 | 4
C[C@@H]1[C@H](O)[C@@H](C)/C=C/C=C/CC/C=C/C=C/C=C/C=C/[C@H](O[C@@H]2O[C@H](C)[C@@H](O)[C@H](NC(=S)NCCN3CCN(C)CC3)[C@@H]2O)C[C@@H]2O[C@](O)(C[C@@H](O)C[C@@H](O)[C@H](O)CC[C@@H](O)C[C@@H](O)CC(=O)O[C@H]1C)C[C@H](O)[C@H]2C(=O)O [Compound N15, N-{3-[2-(4-methylpiperazin-1-yl)ethyl]thioureidyl}nystatin A1] | 4 | 16 | 16 | 5.74 | 8 | 8 | 8
N,N-diethylnystatin A1 [Compound N24] | 4 | 16 | 16 | 3.82 | 8 | 8 | 8
CC1OC(O[C@H]2/C=C/C=C/C=C/C=C/CC/C=C/C=C/[C@H](C)[C@@H](O)[C@@H](C)[C@H](C)OC(=O)C[C@H](O)C[C@H](O)C[C@H](O)CC[C@@H](O)[C@H](O)CC3(O)C[C@H](O)[C@@H](C(=O)O)[C@H](C2)O3)C(O)C(NC2CC(=O)N(CC(C)(C)CN(C)C)C2=O)C1O (some centres unmarked) [Compound N10, N—[N′-3-(N″,N″-dimethylamino)-2,2-dimethylpropylsuccinimidyl]nystatin A1] | 4 | 16 | 16 | 5.47 | 8 | 8 | 8
N-{3-[3-(imidazo-1-yl)propyl]thioureidyl}nystatin A1 [Compound N20] | 8 | 16 | 16 | 6.47 | 8 | 8 | 8
